Test system: 293T-HRE-GFP-luc cells
Assay: Cell-based reporter assay for IC50 determinations (HRE-luciferase, hypoxia)
Settings: 6 h, 6 hrs hypoxia (1% O2), luminescence
Summary of the method: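 293T-HRE-GFP-luc cells were pre-incubated with serially diluted compounds for 30 min under normoxia, then held 6 hrs in hypoxia (1% O2, 37° C). HRE-driven luciferase read by Steadylite Plus luminescence; IC50 from four-parameter logistic fit.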

SMILES	IC50
COCCOc1cccc(Cn2cc(-c3noc(-c4ccc(S(=O)(=O)N(C)C)cc4)n3)ccc2=O)c1 [Example 216, 4-[3-(1-{[3-(2-methoxyethoxy)phenyl]methyl}-6-oxo-1,6-dihydropyridin-3-yl)-1,2,4-oxadiazol-5-yl]-N,N-dimethylbenzene-1-sulfonamide]	100 to 1000 nM
COCCOc1cccc(Cn2cc(-c3noc(-c4ccc(S(=O)(=O)NC(C)C)cc4)n3)ccc2=O)c1 [Example 217, 4-[3-(1-{[3-(2-methoxyethoxy)phenyl]methyl}-6-oxo-1,6-dihydropyridin-3-yl)-1,2,4-oxadiazol-5-yl}-N-(propan-2-yl)benzene-1-sulfonamide]	100 to 1000 nM
COCCOc1cccc(Cn2cc(-c3noc(-c4ccc(C(=O)N(C)C)cc4)n3)ccc2=O)c1 [Example 218, 4-[3-(1-{[3-(2-methoxyethoxy)phenyl]methyl}-6-oxo-1,6-dihydropyridin-3-yl)-1,2,4-oxadiazol-5-yl]-N,N-dimethylbenzamide]	100 to 1000 nM
COCCOc1cccc(Cn2cc(-c3noc(-c4ccc(C(=O)N5CCCC5)cc4)n3)ccc2=O)c1 [Example 219, 1-{[3-(2-methoxyethoxy)phenyl]methyl}-5-{5-[4-(pyrrolidine-1-carbonyl)phenyl]-1,2,4-oxadiazol-3-yl}-1,2-dihydropyridin-2-one]	100 to 1000 nM
COCCOc1cccc(Cn2cc(-c3noc(-c4ccc(CO)cc4)n3)ccc2=O)c1 [Example 220, 5-{5-[4-(hydroxymethyl)phenyl]-1,2,4-oxadiazol-3-yl}-1-{[3-(2-methoxyethoxy)phenyl]methyl}-1,2-dihydropyridin-2-one]	100 to 1000 nM
COCCOc1cccc(Cn2cc(-c3noc(-c4ccc(S(=O)(=O)C(F)F)cc4)n3)ccc2=O)c1 [Example 221, 5-[5-(4-difluoromethanesulfonylphenyl)-1,2,4-oxadiazol-3-yl]-1-{[3-(2-methoxyethoxy)phenyl]methyl}-1,2-dihydropyridin-2-one]	< 100 nM
COCCOc1cccc(Cn2cc(-c3noc(-c4ccc(C)c(C)c4)n3)ccc2=O)c1 [Example 222, 5-[5-(3,4-dimethylphenyl)-1,2,4-oxadiazol-3-yl]-1-{[3-(2-methoxyethoxy)phenyl]methyl}-1,2-dihydropyridin-2-one]	100 to 1000 nM
COCCOc1cccc(Cn2cc(-c3noc(-c4ccc5c(c4)OCO5)n3)ccc2=O)c1 [Example 223, 5-[5-(2H-1,3-benzodioxol-5-yl)-1,2,4-oxadiazol-3-yl]-1-{[3-(2-methoxyethoxy)phenyl]methyl}-1,2-dihydropyridin-2-one]	100 to 1000 nM
COCCOc1cccc(Cn2cc(-c3noc(-c4ccc5c(c4)OC(F)(F)O5)n3)ccc2=O)c1 [Example 224, 5-[5-(2,2-difluoro-2H-1,3-benzodioxol-5-yl)-1,2,4-oxadiazol-3-yl]-1-{[3-(2-methoxyethoxy)phenyl]methyl}-1,2-dihydropyridin-2-one]	< 100 nM
COCCOc1cccc(Cn2cc(-c3noc(-c4ccc5[nH]ccc5c4)n3)ccc2=O)c1 [Example 225, 5-[5-(1H-indol-5-yl)-1,2,4-oxadiazol-3-yl]-1-{[3-(2-methoxyethoxy)phenyl]methyl}-1,2-dihydropyridin-2-one]	100 to 1000 nM
COCCOc1cccc(Cn2cc(-c3noc(-c4ccc(NC(C)=O)cc4)n3)ccc2=O)c1 [Example 226, N-{4-[3-(1-{[3-(2-methoxyethoxy)phenyl]methyl}-6-oxo-1,6-dihydropyridin-3-yl)-1,2,4-oxadiazol-5-yl]phenyl}acetamide]	100 to 1000 nM
COCCOc1cccc(Cn2cc(-c3noc(-c4ccc(COC)cc4)n3)ccc2=O)c1 [Example 227, 1-{[3-(2-methoxyethoxy)phenyl]methyl}-5-{5-[4-(methoxymethyl)phenyl]-1,2,4-oxadiazol-3-yl}-1,2-dihydropyridin-2-one]	< 100 nM
COCCOc1cccc(Cn2cc(-c3noc(-c4ccc5c(c4)CCO5)n3)ccc2=O)c1 [Example 228, 5-[5-(2,3-dihydro-1-benzofuran-5-yl)-1,2,4-oxadiazol-3-yl]-1-{[3-(2-methoxyethoxy)phenyl]methyl}-1,2-dihydropyridin-2-one]	100 to 1000 nM
COCCOc1cccc(Cn2cc(-c3noc(-c4ccc(N5CCCC5)cc4)n3)ccc2=O)c1 [Example 229, 1-{[3-(2-methoxyethoxy)phenyl]methyl}-5-{5-[4-(pyrrolidin-1-yl)phenyl]-1,2,4-oxadiazol-3-yl}-1,2-dihydropyridin-2-one]	< 100 nM
COCCOc1cccc(Cn2cc(-c3noc(-c4ccc(C(C)(C)C)cc4)n3)ccc2=O)c1 [Example 230, 5-[5-(4-tert-butylphenyl)-1,2,4-oxadiazol-3-yl]-1-{[3-(2-methoxyethoxy)phenyl]methyl}-1,2-dihydropyridin-2-one]	100 to 1000 nM
COCCOc1cccc(Cn2cc(-c3noc(-c4cnc(OC)nc4)n3)ccc2=O)c1 [Example 231, 1-{[3-(2-methoxyethoxy)phenyl]methyl}-5-[5-(2-methoxypyrimidin-5-yl)-1,2,4-oxadiazol-3-yl]-1,2-dihydropyridin-2-one]	100 to 1000 nM

SMILES	IC50
COCCOc1cccc(Cn2cc(-c3noc(-c4cnc(N(C)C)nc4)n3)ccc2=O)c1 [Example 232, 5-{5-[2-(dimethylamino)pyrimidin-5-yl]-1,2,4-oxadiazol-3-yl}-1-{[3-(2-methoxyethoxy)phenyl]methyl}-1,2-dihydropyridin-2-one]	< 100 nM
COCCOc1cccc(Cn2cc(-c3noc(-c4ccc(S(=O)(=O)CC(C)C)cc4)n3)ccc2=O)c1 [Example 233, 1-{[3-(2-methoxyethoxy)phenyl]methyl}-5-{5-[4-(2-methylpropanesulfonyl)phenyl]-1,2,4-oxadiazol-3-yl}-1,2-dihydropyridin-2-one]	< 100 nM
CCCNS(=O)(=O)c1ccc(-c2nc(-c3ccc(=O)n(Cc4cccc(OCCOC)c4)c3)no2)cc1 [Example 234, 4-[3-(1-{[3-(2-methoxyethoxy)phenyl]methyl}-6-oxo-1,6-dihydroylpyridin-3-yl)-1,2,4-oxadiazol-5-yl]-N-propylbenzene-1-sulfonamide]	100 to 1000 nM
COCCOc1cccc(Cn2cc(-c3noc(-c4ccc(S(=O)(=O)C(C)C)cc4)n3)ccc2=O)c1 [Example 235, 1-{[3-(2-methoxyethoxy)phenyl]methyl}-5-{5-[4-(propane-2-sulfonyl)phenyl]-1,2,4-oxadiazol-3-yl}-1,2-dihydropyridin-2-one]	100 to 1000 nM
COCCOc1cccc(Cn2cc(-c3noc(-c4ccc(CC(C)C)cc4)n3)ccc2=O)c1 [Example 236, 1-{[3-(2-methoxyethoxy)phenyl]methyl}-5-{5-[4-(2-methylpropyl)phenyl]-1,2,4-oxadiazol-3-yl}-1,2-dihydropyridin-2-one]	< 100 nM
COCCOc1cccc(Cn2cc(-c3noc(-c4ccc(S(=O)(=O)CCOC)cc4)n3)ccc2=O)c1 [Example 237, 5-{5-[4-(2-methoxyethanesulfonyl)phenyl]-1,2,4-oxadiazol-3-yl}-1-{[3-(2-methoxyethoxy)phenyl]methyl}-1,2-dihydropyridin-2-one]	100 to 1000 nM
COCCOc1cccc(Cn2cc(-c3noc(-c4cnc(N5CCCC5)nc4)n3)ccc2=O)c1 [Example 238, 1-{[3-(2-methoxyethoxy)phenyl]methyl}-5-{5-[2-(pyrrolidin-1-yl)pyrimidin-5-yl]-1,2,4-oxadiazol-3-yl}-1,2-dihydropyridin-2-one]	< 100 nM
COCCOc1cccc(Cn2cc(-c3noc(-c4cnc(OCCOC)nc4)n3)ccc2=O)c1 [Example 239, 1-{[3-(2-methoxyethoxy)phenyl]methyl}-5-{5-[2-(2-methoxyethoxy)pyrimidin-5-yl]-1,2,4-oxadiazol-3-yl}-1,2-dihydropyridin-2-one]	100 to 1000 nM
COCCOc1cccc(Cn2cc(-c3noc(-c4cnc(OCC(F)(F)F)nc4)n3)ccc2=O)c1 [Example 240, 1-{[3-(2-methoxyethoxy)phenyl]methyl}-5-{5-[2-(2,2,2-trifluoroethoxy)pyrimidin-5-yl]-1,2,4-oxadiazol-3-yl}-1,2-dihydropyridin-2-one]	< 100 nM
COCCOc1cccc(Cn2cc(-c3noc(-c4cnc(OC(C)C)nc4)n3)ccc2=O)c1 [Example 241, 1-{[3-(2-methoxyethoxy)phenyl]methyl}-5-{5-[2-(propan-2-yloxy)pyrimidin-5-yl]-1,2,4-oxadiazol-3-yl}-1,2-dihydropyridin-2-one]	< 100 nM
COCCOc1cccc(Cn2cc(-c3noc(-c4cnc(N5CCOCC5)nc4)n3)ccc2=O)c1 [Example 242, 1-{[3-(2-methoxyethoxy)phenyl]methyl}-5-{5-[2-(morpholin-4-yl)pyrimidin-5-yl]-1,2,4-oxadiazol-3-yl}-1,2-dihydropyridin-2-one]	< 100 nM
COCCOc1cccc(Cn2cc(-c3noc(-c4cnc(N5CCC(C)(C)CC5)nc4)n3)ccc2=O)c1 [Example 243, 5-{5-[2-(4,4-dimethylpiperidin-1-yl)pyrimidin-5-yl]-1,2,4-oxadiazol-3-yl}-1-{[3-(2-methoxyethoxy)phenyl]methyl}-1,2-dihydropyridin-2-one]	< 100 nM
COCCOc1cccc(Cn2cc(-c3noc(-c4cnc(C5CC5)nc4)n3)ccc2=O)c1 [Example 244, 5-[5-(2-cyclopropylpyrimidin-5-yl)-1,2,4-oxadiazol-3-yl]-1-{[3-(2-methoxyethoxy)phenyl]methyl} 1,2-dihydropyridin-2-one]	< 100 nM
CNc1ncc(-c2nc(-c3ccc(=O)n(Cc4cccc(OCCOC)c4)c3)no2)cn1 [Example 245, 1-{[3-(2-methoxyethoxy)phenyl]methyl}-5-{5-[2-(methylamino)pyrimidin-5-yl]-1,2,4-oxadiazol-3-yl}-1,2-dihydropyridin-2-one]	100 to 1000 nM
COCCOc1cccc(Cn2cc(-c3noc(-c4cnc(NCC(C)C)nc4)n3)ccc2=O)c1 [Example 246]	< 100 nM
COCCOc1cccc(Cn2cc(-c3noc(-c4cnc(NCC(C)(C)C)nc4)n3)ccc2=O)c1 [Example 247, 5-(5-{2-[(2,2-dimethylpropyl)amino]pyrimidin-5-yl}-1,2,4-oxadiazol-3-yl)-1-{[3-(2-methoxyethoxy)phenyl]methyl}-1,2-dihydropyridin-2-one]	< 100 nM
